Test results reported in ChEMBL document CHEMBL1201862, “PubChem BioAssay data set” (2004).
The source made the active and inactive calls.

Key:
[1] = biological target: Metabotropic glutamate receptor 7 (Homo sapiens, UniProt Q14831); assay: mGlu7 positive allosteric modulators, dose response, cell-based, calcium mobilization, Galpha15 (AID 743384); assay type: functional
[2] = THP-1 cell cytotoxicity, dose response, cytotoxicity control for non-replicating M. tuberculosis project (AID 489025); assay type: functional
Melanocortin receptor 4 = Melanocortin receptor 4 (Homo sapiens, UniProt P32245); assay: MC4R antagonist potency on cAMP, dose response, cell-based, TR-FRET, biased antagonists (AID 602298); assay type: functional;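 note: antagonist potency against agonist-stimulated cAMP production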
Sequence of Melanocortin receptor 4 (P32245 whole entry): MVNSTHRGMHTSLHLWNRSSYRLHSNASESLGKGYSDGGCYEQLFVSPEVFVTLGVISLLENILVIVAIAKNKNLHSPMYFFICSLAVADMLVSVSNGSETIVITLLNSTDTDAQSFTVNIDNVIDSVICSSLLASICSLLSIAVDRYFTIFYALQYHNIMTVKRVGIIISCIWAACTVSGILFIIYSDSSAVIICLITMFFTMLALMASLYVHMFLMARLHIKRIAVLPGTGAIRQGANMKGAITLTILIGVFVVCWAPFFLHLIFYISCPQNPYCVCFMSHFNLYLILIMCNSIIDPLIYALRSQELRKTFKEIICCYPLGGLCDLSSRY

[3] = inhibitors of intracellular T. cruzi replication, confirmation, NIH3T3 host cells, beta-gal luminescence (AID 2044); assay type: functional, cell-based;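 note: intracellular parasites grown in NIH/3T3 mouse fibroblasts as host cells; luminescent beta-galactosidase reporter signal from transgenic T. cruzi replicating inside host cells; inhibitors lower the luminescence signal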
[4] = nonselective inhibitors of cellular cAMP signaling, dose response, counter-screen for MC4R biased antagonist project, cell-based, TR-FRET cAMP detection (AID 602305); assay type: functional;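 note: U2OS cells stimulated with forskolin near its EC80 as the cAMP inducer; potency is for inhibition of forskolin-stimulated cAMP signaling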
[5] = biological target: T1, Replicative DNA helicase DnaB (Mycobacterium tuberculosis, UniProt P9WMR3); assay: DnaB intein splicing inhibitors, dose response, biochemical, cell-free fluorescence (AID 449749); assay type: functional
T1 sequence (P9WMR3 whole entry): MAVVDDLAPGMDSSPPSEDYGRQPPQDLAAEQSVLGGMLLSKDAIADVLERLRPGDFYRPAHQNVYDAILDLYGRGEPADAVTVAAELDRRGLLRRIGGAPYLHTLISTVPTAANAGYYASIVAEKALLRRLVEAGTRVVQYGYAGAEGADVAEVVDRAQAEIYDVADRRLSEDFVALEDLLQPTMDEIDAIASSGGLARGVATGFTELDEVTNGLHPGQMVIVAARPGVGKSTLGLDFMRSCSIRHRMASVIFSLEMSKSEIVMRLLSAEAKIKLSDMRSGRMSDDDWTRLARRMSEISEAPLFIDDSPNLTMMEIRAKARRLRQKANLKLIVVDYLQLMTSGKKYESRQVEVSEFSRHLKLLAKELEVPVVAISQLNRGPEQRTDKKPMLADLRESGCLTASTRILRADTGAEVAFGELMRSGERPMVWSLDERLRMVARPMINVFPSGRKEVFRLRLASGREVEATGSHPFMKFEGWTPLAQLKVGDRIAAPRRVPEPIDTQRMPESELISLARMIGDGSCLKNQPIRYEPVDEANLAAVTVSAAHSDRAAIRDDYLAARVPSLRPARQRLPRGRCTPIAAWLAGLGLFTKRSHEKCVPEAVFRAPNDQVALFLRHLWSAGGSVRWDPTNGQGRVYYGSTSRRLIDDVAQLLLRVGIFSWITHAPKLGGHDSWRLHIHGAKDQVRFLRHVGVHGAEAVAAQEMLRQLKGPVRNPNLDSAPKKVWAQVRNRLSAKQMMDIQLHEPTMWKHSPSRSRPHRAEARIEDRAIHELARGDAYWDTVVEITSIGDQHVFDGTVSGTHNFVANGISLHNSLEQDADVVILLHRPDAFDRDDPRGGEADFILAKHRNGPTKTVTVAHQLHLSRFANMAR

Protein RecA = biological target: T2, Protein RecA (Mycobacterium tuberculosis, UniProt P9WHJ3); assay: Fluorescence Cell-Free Homogeneous Dose Retest to Identify Inhibitors of RecA-Intein Splicing Activity. [Related pubchem assays (depositor defined):AID2097, AID2223, AID489010, AID492950]; assay type: functional
T2 sequence (P9WHJ3 whole entry): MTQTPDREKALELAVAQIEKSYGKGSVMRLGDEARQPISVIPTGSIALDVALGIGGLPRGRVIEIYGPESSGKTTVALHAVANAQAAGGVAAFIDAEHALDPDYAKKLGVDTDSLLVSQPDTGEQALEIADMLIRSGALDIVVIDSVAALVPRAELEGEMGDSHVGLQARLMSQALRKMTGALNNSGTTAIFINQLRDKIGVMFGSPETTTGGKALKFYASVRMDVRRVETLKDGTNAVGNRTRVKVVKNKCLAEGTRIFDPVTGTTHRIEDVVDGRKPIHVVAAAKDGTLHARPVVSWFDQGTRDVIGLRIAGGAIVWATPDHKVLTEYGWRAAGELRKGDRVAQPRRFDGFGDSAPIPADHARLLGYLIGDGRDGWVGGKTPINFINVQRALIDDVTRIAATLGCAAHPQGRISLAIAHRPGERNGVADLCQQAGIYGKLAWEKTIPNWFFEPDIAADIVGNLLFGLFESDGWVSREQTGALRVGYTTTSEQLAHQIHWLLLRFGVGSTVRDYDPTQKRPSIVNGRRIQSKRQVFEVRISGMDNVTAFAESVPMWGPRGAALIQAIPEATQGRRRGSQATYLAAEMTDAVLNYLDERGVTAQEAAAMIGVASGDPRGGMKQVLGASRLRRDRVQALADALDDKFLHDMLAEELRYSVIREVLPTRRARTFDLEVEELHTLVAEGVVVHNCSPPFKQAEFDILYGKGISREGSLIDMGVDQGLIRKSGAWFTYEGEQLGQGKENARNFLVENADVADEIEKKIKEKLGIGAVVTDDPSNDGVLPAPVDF

[6] = HepG2 cell cytotoxicity, dose response, cytotoxicity control, cherry-picks, set 5 (AID 1053118); assay type: functional, cell-based
[7] = biological target: T3, Type-1 angiotensin II receptor (Homo sapiens, UniProt P30556); assay: AT1 receptor antagonists, dose response, selectivity assay for APJ receptor antagonist project, cell-based, uHTS hits (AID 463214); assay type: functional;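 note: antagonist potency against angiotensin II stimulated AT1 response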
T3 sequence (P30556 whole entry): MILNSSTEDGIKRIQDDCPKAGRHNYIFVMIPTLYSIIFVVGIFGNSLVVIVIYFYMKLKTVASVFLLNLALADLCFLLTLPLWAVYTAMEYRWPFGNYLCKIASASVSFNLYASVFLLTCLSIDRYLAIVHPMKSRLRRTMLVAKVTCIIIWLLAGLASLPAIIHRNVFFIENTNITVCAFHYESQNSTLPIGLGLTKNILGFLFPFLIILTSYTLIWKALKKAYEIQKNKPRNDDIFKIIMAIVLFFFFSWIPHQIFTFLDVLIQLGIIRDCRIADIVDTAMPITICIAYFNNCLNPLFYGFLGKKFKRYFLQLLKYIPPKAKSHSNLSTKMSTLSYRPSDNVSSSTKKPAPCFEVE

[8] = cytotoxicity toward NIH3T3 fibroblasts, dose response, counter-screen, cell-based, ATP luminescence, mouse fibroblasts (AID 2010); assay type: functional;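 note: cells exposed to compound for about 90 hours before reading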
Large T antigen = Large T antigen (Simian virus 40, UniProt P03070); assay type: functional, Betapolyomavirus macacae;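 note: Confirmatory-stage PubChem screen for compounds that inhibit SV40 T antigen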
Sequence of Large T antigen (P03070 whole entry): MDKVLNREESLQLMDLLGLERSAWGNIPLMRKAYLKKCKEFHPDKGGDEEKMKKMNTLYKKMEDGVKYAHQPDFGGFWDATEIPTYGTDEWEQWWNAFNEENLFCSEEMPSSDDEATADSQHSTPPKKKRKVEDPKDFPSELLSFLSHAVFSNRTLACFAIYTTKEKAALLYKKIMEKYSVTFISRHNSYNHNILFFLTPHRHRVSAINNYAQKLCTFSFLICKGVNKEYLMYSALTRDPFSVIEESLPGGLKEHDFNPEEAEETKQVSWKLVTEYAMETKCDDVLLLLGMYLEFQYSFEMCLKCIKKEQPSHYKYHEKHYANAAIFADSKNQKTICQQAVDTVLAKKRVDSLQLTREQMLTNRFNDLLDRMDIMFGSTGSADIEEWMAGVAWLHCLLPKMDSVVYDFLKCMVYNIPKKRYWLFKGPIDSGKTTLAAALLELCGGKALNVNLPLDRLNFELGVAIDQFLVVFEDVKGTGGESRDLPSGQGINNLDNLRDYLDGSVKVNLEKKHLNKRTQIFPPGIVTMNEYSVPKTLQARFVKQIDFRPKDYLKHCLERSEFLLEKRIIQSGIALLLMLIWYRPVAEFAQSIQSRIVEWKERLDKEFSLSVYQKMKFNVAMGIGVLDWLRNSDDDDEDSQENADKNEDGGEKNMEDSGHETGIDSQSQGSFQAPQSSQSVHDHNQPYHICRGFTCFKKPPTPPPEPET

Beta-galactosidase = Beta-galactosidase (Escherichia coli, UniProt Q8VNN2); assay: PubChem AID 485352; assay type: functional
Sequence of Beta-galactosidase (Q8VNN2 whole entry): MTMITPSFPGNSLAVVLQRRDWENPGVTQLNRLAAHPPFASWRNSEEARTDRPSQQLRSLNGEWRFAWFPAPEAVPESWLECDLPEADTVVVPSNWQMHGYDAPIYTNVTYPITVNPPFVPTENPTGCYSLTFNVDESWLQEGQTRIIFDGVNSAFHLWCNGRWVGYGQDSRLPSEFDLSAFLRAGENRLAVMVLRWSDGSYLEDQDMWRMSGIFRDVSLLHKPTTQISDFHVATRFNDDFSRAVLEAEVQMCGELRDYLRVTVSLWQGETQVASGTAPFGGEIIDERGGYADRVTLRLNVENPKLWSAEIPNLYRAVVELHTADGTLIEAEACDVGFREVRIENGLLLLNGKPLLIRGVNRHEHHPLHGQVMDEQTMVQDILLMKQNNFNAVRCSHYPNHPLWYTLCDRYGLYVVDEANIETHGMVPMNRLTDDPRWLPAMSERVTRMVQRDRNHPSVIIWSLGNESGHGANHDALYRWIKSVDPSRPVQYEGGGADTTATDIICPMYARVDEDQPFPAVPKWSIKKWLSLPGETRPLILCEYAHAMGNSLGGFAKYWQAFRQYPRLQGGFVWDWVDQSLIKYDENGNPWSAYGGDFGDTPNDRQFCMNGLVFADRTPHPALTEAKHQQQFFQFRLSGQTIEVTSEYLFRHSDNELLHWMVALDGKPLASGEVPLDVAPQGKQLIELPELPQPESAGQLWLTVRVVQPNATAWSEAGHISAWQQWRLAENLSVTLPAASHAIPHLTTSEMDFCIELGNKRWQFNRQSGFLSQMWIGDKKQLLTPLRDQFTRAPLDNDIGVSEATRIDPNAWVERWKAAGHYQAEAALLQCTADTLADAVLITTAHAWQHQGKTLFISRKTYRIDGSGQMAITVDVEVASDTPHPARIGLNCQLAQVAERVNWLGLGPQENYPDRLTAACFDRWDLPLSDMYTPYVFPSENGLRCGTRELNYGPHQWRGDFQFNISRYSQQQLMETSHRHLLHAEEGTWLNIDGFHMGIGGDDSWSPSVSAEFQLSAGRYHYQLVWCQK

Paired box protein Pax-8 = Paired box protein Pax-8 (Homo sapiens, UniProt Q06710); assay: inhibitors of PAX8-driven TPO luciferase reporter, dose response, RMG-I cells, cherry-pick (AID 687027); assay type: functional, cell-based;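 note: luciferase reporter driven by Pax8 target thyroperoxidase promoter measured by SteadyGlo luminescence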
Sequence of Paired box protein Pax-8 (Q06710 whole entry): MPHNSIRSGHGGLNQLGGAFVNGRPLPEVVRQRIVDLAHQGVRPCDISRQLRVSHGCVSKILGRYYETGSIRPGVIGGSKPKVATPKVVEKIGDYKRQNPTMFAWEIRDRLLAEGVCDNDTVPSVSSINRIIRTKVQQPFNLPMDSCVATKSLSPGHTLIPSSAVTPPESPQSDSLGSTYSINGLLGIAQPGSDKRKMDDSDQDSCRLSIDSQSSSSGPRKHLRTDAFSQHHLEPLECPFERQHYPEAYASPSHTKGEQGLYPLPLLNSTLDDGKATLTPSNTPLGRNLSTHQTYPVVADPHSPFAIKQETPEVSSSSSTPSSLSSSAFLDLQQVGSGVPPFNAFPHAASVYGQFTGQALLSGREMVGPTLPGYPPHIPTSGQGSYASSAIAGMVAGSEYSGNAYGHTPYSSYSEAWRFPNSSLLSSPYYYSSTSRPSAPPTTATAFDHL

Beta Lactamase = Beta Lactamase (Pseudomonas aeruginosa, UniProt Q932Y6); assay: beta-lactamase reporter inhibitor potency, dose response, artefact control for TLR9-MyD88 binding inhibitor project, BLA reporter cells, FRET fluorescence (AID 588341); assay type: cell-based;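 note: cell based assay in CHO-K1 cells stably expressing beta-lactamase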
Sequence of Beta Lactamase (Q932Y6 whole entry): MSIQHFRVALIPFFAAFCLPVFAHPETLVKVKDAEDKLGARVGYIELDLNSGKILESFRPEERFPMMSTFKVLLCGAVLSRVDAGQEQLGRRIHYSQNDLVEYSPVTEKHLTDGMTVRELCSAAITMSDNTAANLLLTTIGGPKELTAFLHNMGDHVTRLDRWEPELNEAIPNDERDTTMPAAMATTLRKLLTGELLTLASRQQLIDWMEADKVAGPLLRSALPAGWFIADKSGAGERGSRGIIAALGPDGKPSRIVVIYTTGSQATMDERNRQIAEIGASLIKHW

[9] = inhibitors of fibronectin matrix deposition, dose response, AH1F cells, Alexa488-FN fluorescence, cherry-picks (AID 1035475); assay type: functional, cell-based
[10] = non-specific cell cytotoxicity, dose response, cytotoxicity control for PAX8 inhibitor project, plate reader, dry powder samples (AID 743021); assay type: functional, cell-based
[11] = biological target: T4, Heat shock factor protein 1 (Mus musculus, UniProt P38532); assay: inhibition of MG132-induced HSE-luciferase signal, confirmation, cell-based, NIH3T3, luminescence, dose retest (AID 2382); assay type: functional;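 note: NIH3T3 fibroblasts with HSF1-driven luciferase reporter stressed by proteasome inhibitor MG132; luminescence from HSF1-driven luciferase expression after 8 hours of MG132 stress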
T4 sequence (P38532 whole entry): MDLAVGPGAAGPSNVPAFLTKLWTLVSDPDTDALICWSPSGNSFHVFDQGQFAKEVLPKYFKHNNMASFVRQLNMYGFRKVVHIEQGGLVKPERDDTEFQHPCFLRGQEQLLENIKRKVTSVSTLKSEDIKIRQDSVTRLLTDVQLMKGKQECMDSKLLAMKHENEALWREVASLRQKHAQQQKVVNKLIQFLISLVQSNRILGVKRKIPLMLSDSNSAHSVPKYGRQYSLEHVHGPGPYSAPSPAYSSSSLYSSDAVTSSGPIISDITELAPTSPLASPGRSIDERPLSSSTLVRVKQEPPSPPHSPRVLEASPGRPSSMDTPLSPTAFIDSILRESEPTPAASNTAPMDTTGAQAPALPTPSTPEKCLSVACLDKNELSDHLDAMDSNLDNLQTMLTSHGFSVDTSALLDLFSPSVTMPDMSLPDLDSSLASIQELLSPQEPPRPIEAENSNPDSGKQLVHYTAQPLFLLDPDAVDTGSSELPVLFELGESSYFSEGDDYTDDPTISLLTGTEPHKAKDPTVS

[12] = HEK293 cell cytotoxicity, dose response, cytotoxicity control, cherry-picks, set 5 (AID 1053117); assay type: functional, cell-based
CHO = assay: cytotoxicity in TLR9-MyD88 CHO cells, dose response, cytotoxicity control for TLR9-MyD88 binding inhibitor project, cell-based, luminescence (AID 588339); assay type: functional, hamster; details: Cricetulus griseus;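 note: CHO cells stably coexpressing TLR9 and MyD88 fusions from primary screen; compound exposure lasted 48 hours before viability readout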
INS1 = assay: beta cell apoptosis inhibitors, cytokine rescue, dose response, luminescence, retest (AID 449756); assay type: functional, cell-based; details: Rattus norvegicus;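 note: cell death triggered by IL-1 beta plus TNF-alpha plus IFN-gamma mixture; protective hits raise ATP signal compared with cytokine alone wells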
[13] = biological target: Glutathione-S-transferase (Schistosoma japonicum, UniProt Q26513); assay: biotin-GST/anti-GST TR-FRET signal inhibitors, dose response, artefact control for Vif-APOBEC3G degradation inhibitor project, biochemical (AID 1117362); assay type: functional
Sequence of Glutathione-S-transferase (Q26513 whole entry): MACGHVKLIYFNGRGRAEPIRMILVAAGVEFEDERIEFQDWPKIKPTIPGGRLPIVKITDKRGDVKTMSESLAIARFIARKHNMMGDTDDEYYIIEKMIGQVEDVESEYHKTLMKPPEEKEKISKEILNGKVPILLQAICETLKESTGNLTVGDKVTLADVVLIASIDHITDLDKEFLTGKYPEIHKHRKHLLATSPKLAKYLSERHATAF

Vero = Vero cell cytotoxicity, cytotoxicity control for flavivirus capping enzyme inhibitors (AID 588742); assay type: functional; details: Chlorocebus sabaeus

Sequence of Metabotropic glutamate receptor 7 (Q14831 whole entry): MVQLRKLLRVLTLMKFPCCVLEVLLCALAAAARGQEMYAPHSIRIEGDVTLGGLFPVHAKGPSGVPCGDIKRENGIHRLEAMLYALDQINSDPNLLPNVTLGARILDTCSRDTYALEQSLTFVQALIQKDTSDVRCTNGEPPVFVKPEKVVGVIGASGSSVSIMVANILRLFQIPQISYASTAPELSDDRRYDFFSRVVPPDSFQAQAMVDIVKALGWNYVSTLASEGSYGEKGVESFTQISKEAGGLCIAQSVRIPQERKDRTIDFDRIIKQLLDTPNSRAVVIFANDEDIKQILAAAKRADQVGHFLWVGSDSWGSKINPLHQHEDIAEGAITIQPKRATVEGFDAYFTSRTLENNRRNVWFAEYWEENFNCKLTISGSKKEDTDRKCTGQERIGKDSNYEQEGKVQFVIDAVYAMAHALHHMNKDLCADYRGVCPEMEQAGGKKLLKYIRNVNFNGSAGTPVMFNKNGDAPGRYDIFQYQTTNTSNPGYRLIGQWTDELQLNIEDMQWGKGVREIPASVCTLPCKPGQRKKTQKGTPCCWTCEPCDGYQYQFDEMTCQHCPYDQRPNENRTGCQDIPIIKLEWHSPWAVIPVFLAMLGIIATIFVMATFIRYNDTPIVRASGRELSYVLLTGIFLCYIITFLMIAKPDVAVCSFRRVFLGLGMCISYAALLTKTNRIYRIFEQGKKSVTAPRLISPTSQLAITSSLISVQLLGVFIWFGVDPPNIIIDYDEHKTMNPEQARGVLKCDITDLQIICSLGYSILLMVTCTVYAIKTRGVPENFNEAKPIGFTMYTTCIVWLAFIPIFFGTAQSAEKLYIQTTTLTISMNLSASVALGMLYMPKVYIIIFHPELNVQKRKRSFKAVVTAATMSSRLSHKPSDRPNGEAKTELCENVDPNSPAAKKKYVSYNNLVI

Compound: CCn1c(C)cc(C(=O)CSc2ccc(NC(C)=O)cc2)c1C
- EC50 [1]: 10 µM (active)

Compound: CCS(=O)(=O)c1ncc(Cl)c(C(=O)Nc2ccc(S(=O)(=O)N3CCC(C)CC3)cc2)n1
- CC50 [2]: 34.7 µM (active)
- IC50 (Melanocortin receptor 4): > 64.6 µM (inactive)
- EC50 [3]: 1.72 µM (active)
- IC50 [4]: > 64.6 µM (inactive)
- AC50 [5]: 1.13 µM (active)
- EC50 (Protein RecA): 0.889 µM (active)
- AC50 [6]: 7.65 µM (active)
- IC50 [7]: 6.11 µM (active)
- EC50 [8]: 4.05 µM (active)
- IC50 (Large T antigen): 52.5 µM (active)
- EC50 (Beta-galactosidase): > 40 µM (inactive)
- AC50 (Paired box protein Pax-8): 3.45 µM (active)
- IC50 (Beta Lactamase): 8.61 µM (active)
- AC50 [9]: 5.39 µM (active)
- AC50 [10]: 29.3 µM (active)
- EC50 [11]: 4.04 µM (active)
- AC50 [12]: 9.52 µM (active)
- IC50 (CHO): 1.81 µM (active)
- AC50 (INS1): 4.66 µM (active)

Compound: Oc1ccccc1/C=N/c1c(-c2ccco2)nc2ccccn12
- IC50 [13]: > 100 µM (active)
- CC50 (Vero): > 40 µM (active)
